Structures are written as SMILES. Bounds are passed on as bounds.

The target of the assay is T1, CXCR3 (Homo sapiens, UniProt P49682).
T1 construct: host or cells: CHO-K1 (cAMP Hunter CHOK1 CXCR3 Gi cell line)
T1 sequence (P49682 1-368): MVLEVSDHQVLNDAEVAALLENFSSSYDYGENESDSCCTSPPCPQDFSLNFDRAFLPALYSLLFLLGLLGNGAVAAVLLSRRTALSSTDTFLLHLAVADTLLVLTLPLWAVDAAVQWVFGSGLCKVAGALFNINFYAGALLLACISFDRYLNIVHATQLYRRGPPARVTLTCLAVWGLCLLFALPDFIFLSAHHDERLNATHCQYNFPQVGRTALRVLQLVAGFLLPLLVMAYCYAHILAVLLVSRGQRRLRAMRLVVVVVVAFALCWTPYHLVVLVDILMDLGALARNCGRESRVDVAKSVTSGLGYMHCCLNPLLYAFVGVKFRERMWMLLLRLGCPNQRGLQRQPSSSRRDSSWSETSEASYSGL
In words: CXCR3 cAMP agonist assay (cAMP Hunter CHOK1 CXCR3 Gi cell line, forskolin-stimulated, HitHunter cAMP detection). It counts as cell-based. To be noted: cAMP Hunter CHOK1 CXCR3 Gi cells, 20 μM forskolin, 30 minutes; read-out: Activity (CXCR3 cAMP agonist assay compound EC50). Summed up:
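Agonist activity was measured as suppression of forskolin (20 μM)-induced cAMP, read by luminescent enzyme-fragment complementation with a cAMP standard curve and CXCL11 defining full efficacy. Assay used 50,000 CXCR3 Gi CHOK1 cells/well in pH 7.4 HEPES-buffered HBSS with 0.1% BSA, compound 0-10 μM over 12 points, 30 min incubation.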

For the molecule `NCCCC[C@H](NC(=O)[C@@H]1Cc2ccccc2CN1C(=O)CCC(=O)c1ccccc1)C(=O)Nc1ccc(Cl)c(C(F)(F)F)c1` [Compound 1-18], the concentration for a half-maximal effect (EC50) is less than 50 nM.

With `CS(=O)(=O)NCC[C@H](NC(=O)[C@@H]1Cc2ccccc2CN1C(=O)CCC(=O)N1CCCCC1)C(=O)Nc1ccc(Cl)c(Cl)c1F` [Compound 32-1, (S)—N—((S)-1-((3,4-dichloro-2-fluorophenyl)amino)-4-(methylsulfonamido)-1-oxobutan-2-yl)-2-(4-oxo-4-(piperidin-1-yl)butanoyl)-1,2,3,4-tetrahydroisoquinoline-3-carboxamide], the 50% effective concentration (EC50) was in the range of 50 to 250 nM.

Consider `Cc1cc(NC(=O)[C@H](CCN)NC(=O)[C@H]2Cc3ccccc3CN2C(=O)CCC(=O)c2ccccc2)ncc1Cl` [Compound 4-17], for which the EC50 is more than 500 nM.

On to `NCC[C@H](NC(=O)[C@@H]1Cc2ccccc2CN1C(=O)CCC(=O)c1ccccc1)C(=O)Nc1ccc2ccncc2c1` [Compound 2-42], for which the EC50 was more than 500 nM.

As for `Cc1cccc(NC(=O)C2(NC(=O)[C@@H]3Cc4ccccc4CN3C(=O)CCC(=O)c3ccccc3)CCNCC2)c1F` [Compound 13-3], the concentration giving a half-maximal response (EC50) fell in the range of 50 to 250 nM.

In the case of `CC1(C)CCCCN1C(=O)CCC(=O)N1Cc2ccccc2C[C@H]1C(=O)N[C@@H](CCN1CCC(O)CC1)C(=O)Nc1ccc(Cl)c(Cl)c1F` [Compound 26-1, (S)—N—((S)-1-((3,4-dichloro-2-fluorophenyl)amino)-4-(4-hydroxypiperidin-1-yl)-1-oxobutan-2-yl)-2-(4-(2,2-dimethylpiperidin-1-yl)-4-oxobutanoyl)-1,2,3,4-tetrahydroisoquinoline-3-carboxamide], the EC50 was less than 50 nM.

Take `Cc1cc(NC(=O)[C@](C)(CCCCN)NC(=O)[C@@H]2Cc3ccccc3CN2C(=O)CCC(=O)c2ccccc2)ccc1Cl` [Compound 4-10]: the EC50 lay in the range of 50 to 250 nM.

Take `Cc1cc(NC(=O)[C@H](CCN)NC(=O)[C@@H]2Cc3ccccc3CN2C(=O)CCC(=O)N2CC(C(C)(C)O)C2)ccc1Cl` [Compound 12-22]: the 50% effective concentration (EC50) was less than 50 nM.

Regarding `CC1(C)CCN(C(=O)CCC(=O)N2Cc3ccccc3C[C@H]2C(=O)N[C@@H](CCN)C(=O)Nc2ccc(Cl)c(Cl)c2F)CC1` [Compound 15-1, (S)—N—((S)-4-amino-1-((3,4-dichloro-2-fluorophenyl)amino)-1-oxobutan-2-yl)-2-(4-(4,4-dimethylpiperidin-1-yl)-4-oxobutanoyl)-1,2,3,4-tetrahydroisoquinoline-3-carboxamide], the concentration for a half-maximal effect (EC50) was less than 50 nM.

With `Cc1cc(NC(=O)[C@H](CCN)NC(=O)[C@@H]2Cc3ccccc3CN2C(=O)CCC(=O)N2CCN(CC#N)CC2)ccc1Cl` [Compound 12-117], the EC50 was in the range of 50 to 250 nM.

Turning to `NCCCC[C@H](NC(=O)[C@@H]1Cc2ccccc2CN1C(=O)CCC(=O)c1ccccc1)C(=O)Nc1ccc(C(F)(F)F)c(F)c1` [Compound 1-19], the EC50 was in the range of 250 to 500 nM.

Turning to `CC(C)c1ccc(NC(=O)[C@H](CCCCN)NC(=O)[C@@H]2Cc3ccccc3CN2C(=O)CCC(=O)c2ccccc2)cc1` [Compound 1-7], the EC50 is more than 500 nM.

On to `Cc1cc(NC(=O)C2(NC(=O)[C@@H]3Cc4ccccc4CN3C(=O)CCC(=O)c3ccccc3)CCN(CCO)CC2)ccc1Cl` [Compound 20-1, (S)—N-(4-((4-chloro-3-methylphenyl)carbamoyl)-1-(2-hydroxyethyl)piperidin-4-yl)-2-(4-oxo-4-phenylbutanoyl)-1,2,3,4-tetrahydroisoquinoline-3-carboxamide], for which the EC50 fell in the range of 50 to 250 nM.

In the case of `Cc1cc(NC(=O)C(NC(=O)[C@@H]2Cc3ccccc3CN2C(=O)CCC(=O)c2ccccc2)C2CC[N+](C)(C)CC2)ccc1Cl` (mixture of isomers) [Compound 6-6], the EC50 is less than 50 nM.

As for `CCC1CCCN(C(=O)CCC(=O)N2Cc3ccccc3C[C@H]2C(=O)N[C@@H](CCN)C(=O)Nc2ccc(Cl)c(C)c2)C1` (some centres unmarked) [Compound 12-120], the EC50 was less than 50 nM.

With `Cc1cc(NC(=O)[C@H](CCN2CCC(F)(F)CC2)NC(=O)[C@@H]2Cc3ccccc3CN2C(=O)CCC(=O)c2ccccc2)ccc1Cl` [Compound 17-4], the EC50 lay within 50 to 250 nM.

On to `Cc1cc(NC(=O)[C@H](CCN)NC(=O)[C@@H]2Cc3ccccc3CN2C(=O)CCC(=O)N2CC3CCCCC3C2)ccc1Cl` (some centres unmarked) [Compound 12-55], for which the concentration giving a half-maximal response (EC50) was less than 50 nM.

Take `CC(C)(C)C1CCN(C(=O)CCC(=O)N2Cc3ccccc3C[C@H]2C(=O)N[C@@H](CCN)C(=O)Nc2ccc(Cl)c(Cl)c2F)C1` (some centres unmarked) [Compound 15-34]: the EC50 is less than 50 nM.

As for `CC[C@@H]1CCCN1C(=O)CCC(=O)N1Cc2ccccc2C[C@H]1C(=O)N[C@@H](CCN)C(=O)Nc1ccc(Cl)c(C)c1` [Compound 12-65], the EC50 was less than 50 nM.

On to `Cc1cc(NC(=O)[C@H](CCN)NC(=O)[C@@H]2Cc3ccccc3CN2C(=O)CCC(=O)Nc2ccccc2)ccc1Cl` [Compound 12-81], for which the EC50 is less than 50 nM.

Consider `[2H]C([2H])([2H])N1CCN(C(=O)CCC(=O)N2Cc3ccccc3C[C@H]2C(=O)N[C@@H](CCN)C(=O)Nc2ccc(Cl)c(C)c2)CC1` [Compound 12-118], for which the EC50 was less than 50 nM.

`Cc1ccc(NC(=O)[C@H](CCN)NC(=O)[C@@H]2Cc3ccccc3CN2C(=O)CCC(=O)c2ccccc2)c(Cl)c1` [Compound 2-36]: the EC50 is 250 to 500 nM.

Take `Cc1cc(NC(=O)C(CC2CC[N+](C)(C)CC2)NC(=O)[C@@H]2Cc3ccccc3CN2C(=O)CCC(=O)c2ccccc2)ccc1Cl` (mixture of isomers) [Compound 6-2, 4-((S)-3-((4-chloro-3-methylphenyl)amino)-3-oxo-2-((S)-2-(4-oxo-4-phenylbutanoyl)-1,2,3,4-tetrahydroisoquinoline-3-carboxamido)propyl)-1,1-dimethylpiperidin-1-ium iodide]: the EC50 fell in the range of 50 to 250 nM.

Consider `Cc1cc(NC(=O)[C@H](CCCCN)NC(=O)[C@@H]2Cc3ccccc3CN2C(=O)CCC(=O)c2ccc(F)c(F)c2)ccc1Cl` [Compound 7-4], for which the EC50 was 250 to 500 nM.

Regarding `CN1Cc2ccc(NC(=O)[C@H](CCN)NC(=O)[C@@H]3Cc4ccccc4CN3C(=O)CCC(=O)c3ccccc3)cc2C1` [Compound 2-82], the EC50 is less than 50 nM.

Turning to `Cc1c(F)cc(NC(=O)[C@H](CCN)NC(=O)[C@@H]2Cc3ccccc3CN2C(=O)CCC(=O)c2ccccc2)cc1Cl` [Compound 4-19], the EC50 was less than 50 nM.

Consider `Cc1cnc(NC(=O)[C@H](CCN)NC(=O)[C@@H]2Cc3ccccc3CN2C(=O)CCC(=O)c2ccccc2)cc1Cl` [Compound 27-1, (S)—N—((S)-4-amino-1-((4-chloro-5-methylpyridin-2-yl)amino)-1-oxobutan-2-yl)-2-(4-oxo-4-phenylbutanoyl)-1,2,3,4-tetrahydroisoquinoline-3-carboxamide], for which the EC50 is less than 50 nM.

In the case of `Cc1cc(NC(=O)[C@H](CCN)NC(=O)[C@@H]2Cc3ccccc3CN2C(=O)CCC(=O)N2C(C)CCCC2C)ccc1Cl` (some centres unmarked) [Compound 12-41], the EC50 is less than 50 nM.

In the case of `CC[C@H]1CCCN1C(=O)CCC(=O)N1Cc2ccccc2C[C@H]1C(=O)N[C@@H](CCN)C(=O)Nc1ccc(Cl)c(C)c1` [Compound 12-111], the EC50 is less than 50 nM.

For `Cc1cc(NC(=O)[C@H](CCN)NC(=O)[C@@H]2Cc3ccccc3CN2C(=O)CCC(=O)NCC2CCCCC2)ccc1Cl` [Compound 12-3], the EC50 fell in the range of 50 to 250 nM.

Turning to `Cc1cc(NC(=O)[C@H](CCN)NC(=O)[C@@H]2Cc3ccccc3CN2C(=O)CCC(=O)N2CC3CCC2CN3C)ccc1Cl` (some centres unmarked) [Compound 12-146], the EC50 is more than 500 nM.

Consider `Cc1cc(NC(=O)[C@H](CCN)NC(=O)[C@@H]2Cc3ccccc3CN2C(=O)CCC(=O)N2CCC(F)CC2)ccc1Cl` [Compound 12-67], for which the EC50 was less than 50 nM.

For `CCNCC[C@H](NC(=O)[C@@H]1Cc2ccccc2CN1C(=O)CCC(=O)c1ccccc1)C(=O)Nc1ccc(Cl)c(C)c1` [Compound 8-4], the EC50 was less than 50 nM.

Regarding `NCC[C@H](NC(=O)[C@@H]1Cc2ccccc2CN1C(=O)CCC(=O)c1ccccc1)C(=O)Nc1cc(Cl)c(Cl)c(Cl)c1` [Compound 14-4], the concentration for a half-maximal effect (EC50) was less than 50 nM.

On to `COc1c(NC(=O)[C@H](CCN)NC(=O)[C@@H]2Cc3ccccc3CN2C(=O)CCC(=O)c2ccccc2)ccc(C)c1C` [Compound 2-61], for which the concentration for a half-maximal effect (EC50) was more than 500 nM.

With `Cc1cc(NC(=O)[C@H](CCN)NC(=O)[C@@H]2Cc3ccccc3CN2C(=O)CCC(=O)N2CCC[C@H]2CF)ccc1Cl` [Compound 12-139], the concentration for a half-maximal effect (EC50) was less than 50 nM.

In the case of `Cc1cc(NC(=O)[C@H](CCN)NC(=O)[C@@H]2Cc3ccccc3CN2C(=O)CCC(=O)N2CCCN(C)CC2)ccc1Cl` [Compound 12-34], the EC50 lay in the range of 50 to 250 nM.

For the molecule `Cc1cc(NC(=O)[C@@H](CC23CC(N)(C2)C3)NC(=O)[C@@H]2Cc3ccccc3CN2C(=O)CCC(=O)c2ccccc2)ccc1Cl` [Compound 22-2, (S)—N—((R)-3-(3-aminobicyclo[1.1.1]pentan-1-yl)-1-((4-chloro-3-methylphenyl)amino)-1-oxopropan-2-yl)-2-(4-oxo-4-phenylbutanoyl)-1,2,3,4-tetrahydroisoquinoline-3-carboxamide], the EC50 is 250 to 500 nM.

Take `COc1cc(Cl)ccc1NC(=O)[C@H](CCN)NC(=O)[C@@H]1Cc2ccccc2CN1C(=O)CCC(=O)c1ccccc1` [Compound 13-4]: the EC50 was 50 to 250 nM.

As for `NCCCC[C@H](NC(=O)[C@@H]1Cc2ccccc2CN1C(=O)CCC(=O)c1ccccc1)C(=O)Nc1ccccc1F` [Compound 1-15], the EC50 is 250 to 500 nM.

Consider `COc1ccc(C(=O)CCC(=O)N2Cc3ccccc3C[C@H]2C(=O)N[C@@H](CCCCN)C(=O)Nc2ccc(Cl)c(C)c2)cc1F` [Compound 7-9], for which the EC50 was more than 500 nM.

In general, EC50 refers to the concentration at which the effect is half-maximal.

(Values after patent US11040954B1, “CXCR3 receptor agonists” (RECEPTOS LLC, priority 2016, dated 2021).)
